Experimental findings from patent publication US20100189683A1, “Pulsatile Dosing of Gossypol for Treatment of Disease” (Ascenta Therapeutics, Inc., priority 2008, published 2010) are described below.

Marks after values point to notes of the source that are not given here.

The experiment relates to patients with advanced cancer. The experiment can be described thus: Clinical efficacy (stable disease for 60 days or more) of (−)-gossypol by dosing schedule. The class given is in vivo, human. As to the method:
Following (−)-gossypol administration to patients with advanced cancer, clinical efficacy (e.g., patients having stable disease for 60 days or more) was monitored according to the following dosing schedules: “Daily” dosing: 5 to 60 mg/day of (−)-gossypol on 21 days per 28 day cycle; “BID×3d” dosing: 30 to 80 mg BID of (−)-gossypol on 3 consecutive days (e.g., Monday-Tuesday-Wednesday) repeated every other week per 28 day cycle; and “Weekly” dosing: 80 to 200 mg of (−)-gossypol once weekly per 28 day cycle. […] Tumor types represented in this study included: non-small cell lung cancer, non-Hodgkin lymphoma, chronic lymphocytic leukemia/small lymphocytic lymphoma, colon cancer, breast cancer, small cell lung cancer, head and neck cancer, sarcoma, hepatocellular cancer, pancreatic cancer, esophageal cancer, cholangiocarcinoma, carcinoid/neuroendocrine cancer, Hodgkin's lymphoma, endometrial cancer, adrenal cancer, melanoma, gastrointestinal stromal tumor, renal cancer, bladder cancer, and ovarian cancer.

Regarding `Cc1cc2c(C(C)C)c(O)c(O)c(C=O)c2c(O)c1-c1c(C)cc2c(C(C)C)c(O)c(O)c(C=O)c2c1O` [(−)-gossypol], the “Median # (%) of patients with stable disease ≧60 days” value (“Median # (%) of patients” below) (BID × 3 d, N = 21) was 6 (24) # (%); the “Median # (%) of patients” value (Daily, N = 38) is 6 (16) # (%); the “Median # (%) of patients” value (Weekly, N = 12) is given as 2 (13) # (%). For the same molecule, the “Median duration of days of stable disease (range)” value is 180 (72-443) days (BID × 3 d, N = 21); 82 (56-341) days (Daily, N = 38); 69 (58-80) days (Weekly, N = 12). Further, the “Median duration of days of stable disease” value (pulsatile dosing (BID×3d) as compared to continuous daily dosing) is listed as “longer median duration of days of stable disease”.
